According to US20210393742A1, “LONG-ACTING INTERLEUKIN-15 RECEPTOR AGONIST IN COMBINATION WITH ANOTHER PHARMACOLOGICALLY ACTIVE AGENT” (Nektar Therapeutics, priority 2018, published 2021):

Tests used:
[1] = system: STAT5 phosphorylation in KHYG-1 cells; test: Phosphorylation of STAT5 in KHYG-1 cells (Example 7); type: cell-based, human; conditions: 10 minutes
Procedure: (§1) KHYG-1 cells were cultured in RPMI-1640 medium supplemented with 20% FBS, 2 mM L-glutamine, and 20 ng/mL IL-2 (Complete growth medium) in a humidified incubator at 37° C. and 5% CO2.
(§2) One day prior to treatment with test compounds, cells were seeded at a density of 500,000 viable cells/ml in Complete growth medium and incubated overnight under normal growth conditions. On the day of the assay, KHYG-1 cells were washed 3 times with DPBS, resuspended in assay medium (RPMI-1640 medium supplemented with 20% FBS, 2 mM L-glutamine), and incubated for 4-5 hours at 37° C., 5% CO2. Cells were adjusted to the appropriate density (8×10^5 cells/mL) in assay medium and 50,000 cells/well were aliquoted into wells of a 96-well plate (View-Plate 96, Perkin-Elmer).
KHYG-1 cells were stimulated with IL-15 or a long-acting IL-15 receptor agonist (mono(mPEG-butanamide)IL-15) followed by incubation at 37° C., 5% CO2 for 10 minutes. Treated cells were lysed on ice.
Detection of phospho-STAT5 protein levels in cell lysates was performed using the Phospho(Tyr694)/Total STAT5a,b Assay Whole Cell Lysate kit (MSD product #K15163D). Relative light unit (RLU) signal corresponding to phosphor-STAT5 was collected using a Sector® Imager 2400 plate reader (MSD) with the results provided in FIG. 10A.

KHYG-1 cells = test: KHYG-1 cell proliferation, CellTiter-Glo 2.0 (Example 7); type: cell-based, human; conditions: 48 hours
Procedure: as §1, §2
Stimulation of KHYG-1 cells was initiated by the transfer of IL-15 or a long-acting IL-15 receptor agonist (mono(mPEG-butanamide)IL-15) to duplicate wells containing cells, followed by 48 hours incubation at 37° C., 5% CO2.
Cell growth in each well was measured by monitoring ATP levels using CellTiter-Glo 2.0, following the manufacturer's instructions. The effect of the long-acting IL-15 receptor agonist on KHYG-1 cell proliferation was compared to IL-15 following 48-hour treatment using CellTiter-Glo 2.0 with the results shown in FIG. 10B.

NK cells = test: CD16 surface expression on bone marrow NK cells of Daudi lymphoma bearing mice (Example 10); type: in vivo; conditions: bone marrow day 24
Procedure: Balb/c mice bearing Daudi B cell lymphoma tumors in the bone marrow (n=6/group) were intraperitoneally administered a single 0.5 mg/kg dose of the human CD38 protein targeting clinical antibody daratumumab (DARZALEX®, Janssen Biotech) or a nonspecific control antibody with a matching isotype on day 14 after Daudi cell intravenous inoculation. Additional groups were treated with (i) mono(mPEG-N-butanamide)40 kD interleukin-15 (Conjugate 1) administered subcutaneously at a dose of 0.3 mg/kg as a single agent on days 14 and 21 after Daudi cell inoculation, or (ii) a combination treatment of Conjugate 1 administered subcutaneously at doses of 0.03 mg/kg or 0.3 mg/kg on days 14 and 21 after Daudi cell inoculation and daratumumab administered intraperitoneally at a dose of 0.5 mg/kg on day 14 after Daudi cell inoculation.
Three days following the second Conjugate 1 administration (day 24 after Daudi inoculation), bone marrow was collected and the NK cell fraction was measured by flow cytometry in total bone marrow. The fraction of NK cells expressing the cell surface CD16 receptor that is known to mediate antibody dependent cellular cytotoxicity mechanism in the presence of tumor targeting antibodies, and the change in CD16 expression per cell basis on NK cells are shown in FIGS. 13A and 13B, respectively.

Daudi B cell lymphoma = test: Daudi cell counts in bone marrow, low and high doses (Example 14); type: in vivo, mice; conditions: day 24, single agent
Procedure: SCID mice (N=6/group) were intravenously inoculated with 10 million Daudi cells on Day 0 and treated with a single dose of a lower or higher dose of daratumumab (0.05 mg/kg or 5 mg/kg IP, 14 days following Daudi cell inoculation) and two doses of either lower or higher dose mono(methoxyPEG-N-butanamide)interleukin-15 (compound 1) (0.03 mg/kg or 0.6 mg/kg intravenously, one dose at each of 14 and 21 days after inoculation). Mice were also treated with the single agent therapies: daratumumab (0.05 mg/kg or 5 mg/kg IP, 14 days following Daudi cell inoculation) or two doses of mono(methoxyPEG-N-butanamide)40 kD interleukin-15 (compound 1) (0.03 mg/kg or 0.6 mg/kg intravenously, 14 and 21 days after inoculation). Daudi cell numbers in the bone marrow were assessed three days following the second dose of mono(methoxyPEG-N-butanamide)40 kD interleukin-15 (day 24) by flow cytometry as shown in FIGS. 17A and 17B.

[2] = system: H1975 lung carcinoma cells; test: Tumor growth in H1975 lung tumor model (Example 17); type: in vivo, mice; conditions: day 27 after treatment initiation; cetuximab 0.25 mg/kg IP x3; Compound 1 0.3 mg/kg IV x3
Procedure: Delay in loss of tumor growth control was evaluated on day 27 after treatment initiation.

HCT-116 cells = test: ADCC of cetuximab-coated HCT-116 cells by primed human NK cells (Example 20); type: cell-based; conditions: NK cells primed with 300 ng/mL overnight; cetuximab 30 ug/mL; E:T 10:1, 3 hours
Procedure: Human NK cells were magnetically sorted from normal donor PBMCs using negative selection. NK cells were seeded in a 96-well U-bottom plate at a density of 400,000 cells/well. NK cells were stimulated with mono(methoxyPEG-N-butanamide)40 kD interleukin-15 (Compound 1) (300 ng/mL) (+) or left unstimulated (−) in complete RPMI-1640 media supplemented with 10% fetal bovine serum (FBS) and 1% antibiotic/antimycotic overnight at 37° C. in 5% CO2.
The colonic human HCT-116 cells (ATCC #CCL-247) were cultured McCoy 5A media (ATCC+30-2007) supplemented with 10% fetal bovine serum (FBS) and 1% antibiotic/antimycotic at 37° C. in 5% CO2. HCT-116 cells were subcultured by incubating in 0.25% Trypsin-0.53 mM EDTA for 5 min at 37° C., washed in sterile PBS, resuspended in culture media, counted, and co-cultured with the NK cells using an effector:target (E:T) of 10:1. […] Following incubation, cells were washed in flow staining buffer, Fc-blocked for 15 min at 4° C., and surface-stained (EpCAM, CD45, CD56, CD3-fluorescently conjugated antibodies) for 20 min at 4° C. in the dark. The cells were washed in PBS and incubated in 7-aminoactinomycin (7-AAD) viability stain for 30 minutes at 4° C. before acquiring for flow cytometric analysis using a Fortessa (BD). The percentage of 7-AAD+CD45-EpCAM+ target cells from total cell population is the percentage for dead tumor cells.

[3] = Conjugate 1 0.3 mg/kg, antibody 0.5 mg/kg

Substance: mono(methoxyPEG-N-butanamide)40 kD interleukin-15 [Conjugate 1]
- phosphorylation of STAT5 [1]: dose-dependent phosphorylation of STAT5
- potency in STAT5 phosphorylation, fold less than IL-15 [1]: ~3 fold
- maximal proliferative response (KHYG-1 cells): comparable to the response produced by IL-15
- Fraction of NK cell expressing cell surface CD16 (mean value) (NK cells; Conjugate 1 0.3 mg/kg SC days 14 and 21, antibody 0.5 mg/kg IP day 14): 96%
- CD16 mean fluorescence intensity (MFI mean value) (NK cells; [3]): 853
- Relative CD16 expression compared to untreated condition (NK cells; [3]): 1.8x increase
- intra-bone marrow tumor cells depleted (Daudi B cell lymphoma; high dose (daratumumab 5 mg/kg; compound 1 0.6 mg/kg)): 69%
- intra-bone marrow tumor cells depleted (Daudi B cell lymphoma; low dose (daratumumab 0.05 mg/kg; compound 1 0.03 mg/kg)): 42%
- tumor growth control [2]: no tumor growth inhibition
- ADCC, % 7-AAD+CD45-EpCAM+ target cells (HCT-116 cells): enhance ADCC of cetuximab-coated human solid tumor cells
